Measured values taken from patent US9856279B2 (AGIOS PHARMACEUTICALS, INC, priority 2011, dated 2018).

How the values were obtained:
IDH1 R132H = IDH1 R132H (Homo sapiens, UniProt O75874, R132H); assay: Assay for IDH1 R132H inhibitors (NADPH/aKG, resazurin detection); format: biochemical; details: enzyme assay of Example 12; read-out: IDH1R132H IC50
How it was run: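 Compound added to substrate mix (8 uM NADPH, 2 mM aKG), then enzyme mix (0.2 μg/ml IDH1 R132H); 50 min RT in 20 mM Tris pH 7.5, 150 mM NaCl, 10 mM MgCl2, 0.03% BSA. Resazurin detection mix (30 μM) 5 min RT; resorufin fluorescence Ex544/Em590.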

HT1080 cells = assay: Cellular assay for IDH1m inhibitors: inhibition of 2-HG production (LC-MS, 48 hours) in HT1080 cells; format: cell-based; details: Homo sapiens, HT-1080; inhibition of 2-HG production, HT1080 cells; read-out: HT1080 IC50
How it was run: (§1)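 The read-out is 2-HG in culture medium, measured by LC-MS after 48 h of compound exposure (0.2% DMSO) in cells plated overnight at 5000 per well in DMEM/10% FBS. IC50 is 50% reduction relative to DMSO wells. Luminescent viability (Cell Titer Glo) followed at 72 h.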

U87MG cells = assay: Cellular assay for IDH1m inhibitors: inhibition of 2-HG production (LC-MS, 48 hours) in U87MG cells; format: cell-based; details: Homo sapiens, U-87 MG, inhibition of 2-HG production, U87R132H cells; read-out: U87R132H IC50
How it was run: as §1

Sequence of IDH1 R132H (O75874 whole entry R132H): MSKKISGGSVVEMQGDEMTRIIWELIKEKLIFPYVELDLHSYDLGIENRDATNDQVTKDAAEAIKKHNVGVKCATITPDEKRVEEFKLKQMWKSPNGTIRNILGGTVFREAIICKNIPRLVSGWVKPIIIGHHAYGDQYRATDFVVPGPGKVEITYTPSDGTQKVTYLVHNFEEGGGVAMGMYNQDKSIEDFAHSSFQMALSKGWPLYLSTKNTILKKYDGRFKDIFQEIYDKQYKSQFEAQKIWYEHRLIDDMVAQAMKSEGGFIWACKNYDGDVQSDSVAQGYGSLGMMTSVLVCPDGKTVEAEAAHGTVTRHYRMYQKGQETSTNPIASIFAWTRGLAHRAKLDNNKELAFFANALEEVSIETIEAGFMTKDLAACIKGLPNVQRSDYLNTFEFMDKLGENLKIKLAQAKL

Row | SMILES | IC50 (IDH1 R132H) [nM] | IC50 (HT1080 cells) [nM] | IC50 (U87MG cells) [nM]
1 | C=Cc1cc(Nc2cc(C#N)c(N3CCN(C(=O)CCOC)[C@H](C4CC4)C3)nc2C2CC2)ccn1 [Compound 678, (R)-6-cyclopropyl-2-(3-cyclopropyl-4-(3-methoxypropanoyl)piperazin-1-yl)-5-((2-vinylpyridin-4-yl)amino)nicotinonitrile] | < 500 | < 500 | < 500
2 | C=Cc1cc(-c2cc(C#N)c(N3CCN(C(=O)CCO)[C@H](C(C)C)C3)nc2C2CC2)c2ccncc2n1 [Compound 681, (R)-6-cyclopropyl-2-(4-(3-hydroxypropanoyl)-3-isopropylpiperazin-1-yl)-5-(2-vinyl-1,7-naphthyridin-4-yl)nicotinonitrile] | < 500 | < 500 | < 500
3 | C=Cc1cc(-c2cc(C#N)c(N3CCN(C(=O)CCO)[C@H](C4CC4)C3)nc2C2CC2)cnn1 [Compound 686, (R)-6-cyclopropyl-2-(3-cyclopropyl-4-(3-hydroxypropanoyl)piperazin-1-yl)-5-(6-vinylpyridazin-4-yl)nicotinonitrile] | < 500 | < 500 | < 500
4 | C=Cc1cc(-c2cc(C#N)c(N3CCN(C(=O)CCO)[C@H](C4CC4)C3)nc2C2CC2)c2ccncc2n1 [Compound 688, (R)-6-cyclopropyl-2-(3-cyclopropyl-4-(3-hydroxypropanoyl)piperazin-1-yl)-5-(2-vinyl-1,7-naphthyridin-4-yl)nicotinonitrile] | < 500 | < 500 | < 500
5 | C=Cc1cc(-c2cc(C#N)c(N3CCN(C(=O)C4CC4)[C@H](C4CC4)C3)nc2C2CC2)c2ccncc2n1 [Compound 689, (R)-2-(4-(cyclopropanecarbonyl)-3-cyclopropylpiperazin-1-yl)-6-cyclopropyl-5-(2-vinyl-1,7-naphthyridin-4-yl)nicotinonitrile] | < 500 | < 500 | < 500
6 | C=Cc1cc(N(C)c2cc(C#N)c(N3CCN(C(=O)CCOC)[C@H](C)C3)nc2C2CC2)ccn1 [Compound 690, (R)-6-cyclopropyl-2-(4-(3-methoxypropanoyl)-3-methylpiperazin-1-yl)-5-(methyl(2-vinylpyridin-4-yl)amino)nicotinonitrile] | < 500 | < 500 | < 500
7 | C=Cc1cc(Oc2cc(C#N)c(N3CCN(C(=O)CCO)[C@H](C4CC4)C3)nc2C2CC2)ccn1 [Compound 692, (R)-6-cyclopropyl-2-(3-cyclopropyl-4-(3-hydroxypropanoyl)piperazin-1-yl)-5-(2-vinylpyridin-4-yloxy)nicotinonitrile] | < 500 | < 500 | < 500
8 | C=Cc1cc(Oc2cc(C#N)c(N3CCN(C(=O)CCOC)[C@H](C4CC4)C3)nc2C2CC2)ccn1 [Compound 693, (R)-6-cyclopropyl-2-(3-cyclopropyl-4-(3-methoxypropanoyl)piperazin-1-yl)-5-(2-vinylpyridin-4-yloxy)nicotinonitrile] | < 500 | < 500 | < 500

Second part, the compound after the results:

Row | IC50 (IDH1 R132H) [nM] | IC50 (HT1080 cells) [nM] | IC50 (U87MG cells) [nM] | SMILES
9 | < 500 | 500 to 1000 | < 500 | N#Cc1cc(Oc2ccnc(Cl)c2)c(C2CC2)nc1N1CCN(C(=O)CCO)[C@H](C2CC2)C1 [Compound 694, (R)-5-(2-chloropyridin-4-yloxy)-6-cyclopropyl-2-(3-cyclopropyl-4-(3-hydroxypropanoyl)piperazin-1-yl) nicotinonitrile]
10 | < 500 | < 500 | < 500 | COCCC(=O)N1CCN(c2nc(C3CC3)c(Oc3ccnc(Cl)c3)cc2C#N)C[C@H]1C1CC1 [Compound 695, (R)-5-((2-chloropyridin-4-yl)oxy)-6-cyclopropyl-2-(3-cyclopropyl-4-(3-methoxypropanoyl)piperazin-1-yl)nicotinonitrile]
11 | < 500 | < 500 | < 500 | C=Cc1cnnc(-c2cc(C#N)c(N3CCN(C(=O)C4CC4)[C@H](C4CC4)C3)nc2C2CC2)c1 [Compound 696, (R)-2-(4-(cyclopropanecarbonyl)-3-cyclopropylpiperazin-1-yl)-6-cyclopropyl-5-(5-vinylpyridazin-3-yl)nicotinonitrile]
12 | < 500 | < 500 | < 500 | C=Cc1cc(Cc2cc(C#N)c(N3CCN(C(=O)CCO)[C@H](C4CC4)C3)nc2C2CC2)ccn1 [Compound 697, (R)-6-cyclopropyl-2-(3-cyclopropyl-4-(3-hydroxypropanoyl)piperazin-1-yl)-5-((2-vinylpyridin-4-yl)methyl)nicotinonitrile]
13 | < 500 | < 500 | < 500 | C=Cc1cc(Nc2cc(C#N)c(N3CCN(C(=O)CCO)[C@H](C)C3)nc2C2CC2)c2ccncc2n1 [Compound 698, (R)-6-cyclopropyl-2-(4-(3-hydroxypropanoyl)-3-methylpiperazin-1-yl)-5-((2-vinyl-1,7-naphthyridin-4-yl)amino)nicotinonitrile]
14 | < 500 | 1000 to 10000 | 1000 to 10000 | C=CC(=O)N(c1ccncc1)c1cc(C#N)c(N2CCN(C(=O)CCOC)[C@H](C)C2)nc1C1CC1 [Compound 702, (R)—N-(5-cyano-2-cyclopropyl-6-(4-(3-methoxypropanoyl)-3-methylpiperazin-1-yl)pyridin-3-yl)-N-(pyridin-4-yl) acryl amide]
15 | < 500 | < 500 | < 500 | C=Cc1cc(COc2cc(C#N)c(N3CCN(C(=O)CCOC)[C@H](C)C3)nc2C2CC2)ccn1 [Compound 703, (R)-6-cyclopropyl-2-(4-(3-methoxypropanoyl)-3-methylpiperazin-1-yl)-5-((2-vinylpyridin-4-yl)methoxy)nicotinonitrile]
16 | < 500 | < 500 | < 500 | C=Cc1cc(Nc2cc(C#N)c(N3CCN(C(=O)CCOC)[C@H](C)C3)nc2C2CC2)c2cccnc2n1 [Compound 705, (R)-6-cyclopropyl-2-(4-(3-methoxypropanoyl)-3-methylpiperazin-1-yl)-5-(2-vinyl-1,8-naphthyridin-4-ylamino)nicotinonitrile]
17 | < 500 | < 500 | < 500 | C=Cc1ccnc(Nc2cc(C#N)c(N3CCN(C(=O)CCOC)[C@H](C4CC4)C3)nc2C2CC2)c1 [Compound 706, (R)-6-cyclopropyl-2-(3-cyclopropyl-4-(3-methoxypropanoyl)piperazin-1-yl)-5-((4-vinylpyridin-2-yl)amino)nicotinonitrile]
18 | < 500 | < 500 | < 500 | C=Cc1ccnc(Nc2cc(C#N)c(N3CCN(C(=O)CCO)[C@H](C)C3)nc2C2CC2)c1 [Compound 707, (R)-6-cyclopropyl-2-(4-(3-hydroxypropanoyl)-3-methylpiperazin-1-yl)-5-((4-vinylpyridin-2-yl)amino)nicotinonitrile]
19 | < 500 | < 500 | < 500 | C=Cc1ccc2ccc(-c3cc(C#N)c(N4CCN(C(=O)C5CC5)[C@H](C5CC5)C4)nc3C3CC3)cc2n1 [Compound 709, (R)-2-(4-(cyclopropanecarbonyl)-3-cyclopropylpiperazin-1-yl)-6-cyclopropyl-5-(2-vinylquinolin-7-yl) nicotinonitrile]
